Patent publication US20260223850A1, “SUBSTITUTED PYRROLIDONE COMPOUND, PREPARATION METHOD THEREFOR, COMPOSITION AND APPLICATION THEREOF” (QINGDAO KINGAGROOT CHEMICAL COMPOUND CO., LTD., priority 2023, published 2026)

Columns and labels:
[1] = tested on: Rice sheath blight; test: Fungicidal activity assay, petri dish method; assay type: cell-based; conditions: 25° C., after 4 days; for Rice sheath blight/% (mycelium growth inhibition rate): 400 ppm
Protocol: (§1) Petri dish method: The drug agent was dissolved with acetone, diluted with sterile water, and set to different levels of mass concentrations according to its activity. Under aseptic operation conditions, the pre-melted sterilized medium was quantitatively added into sterilized flasks according to the test treatment. The drug solutions were quantitatively aspirated in order from low to high concentrations, added into the above-mentioned flasks, and shaken well, respectively. Next, equal amounts of the solution were poured into 3 petri dishes with a diameter of 6 cm to prepare drug-containing plates with corresponding concentrations. In the test, a treatment without drugs was set up as the blank control and each treatment was repeated 3 times. A fungus cake was cut out from the edge of the colony of the cultured pathogens using a sterile hole puncher with a diameter of 3 mm under sterile conditions. The fungus cake was inoculated into the center of a drug-containing plate using an inoculator, with the mycelia facing up, covered with a plate cover, and cultured in an incubator at 25° C. The growth of pathogen mycelia was investigated according to the fungal growth in the blank control petri dishes after 4 days. The diameters of the colonies were measured with a caliper in millimeters (mm). Each colony was vertically measured for diameters once each by the cross method and then averaged. Based on the investigation results, the mycelium growth inhibition rate of each treatment concentration on the test target fungi was calculated in accordance with Equation (1) and (2). The unit was percentage (%).
(§2) [formula] • wherein: D—Increase of colony diameter; D1—Diameter of colony; D2—Diameter of fungus cake.
(§3) [formula] • wherein: I—Mycelium growth inhibition rate; D0—Increase of colony diameter of blank control; Dt—Increase of colony diameter of drug treatment.

[2] = tested on: Apple ring rot; test: Fungicidal activity assay, petri dish method; assay type: cell-based; conditions: 25° C., after 4 days; for Apple ring rot/% (mycelium growth inhibition rate): 400 ppm
Protocol: as §1, §2, §3

[3] = tested on: Echinochloa crusgalli; test: Seedling stage sealing experiment for water-seeding; assay type: in vivo; conditions: 120 g a.i./ha, seedling stage sealing, 15 days, fresh weight control rate
[4] = tested on: Echinochloa phyllopogon; test: as above; assay type: in vivo; conditions: 120 g a.i./ha, seedling stage sealing, 15 days, fresh weight control rate
Summary of the method: (§4)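 Scores (0 = no effect to 9 = dead) reflect fresh-weight control rate 15 days after spray application in greenhouse at 15, 30, 60 or 120 g a.i./ha, mean of three replicates. Seeds were broadcast and soil-covered in pots held moist in water-filled cultivation boxes.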

[5] = tested on: Leptochloa chinensis; test: as above; assay type: in vivo; conditions: 120 g a.i./ha, 15 days, fresh weight control rate
Summary of the method: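 Seeds sown in soil-filled bowls kept moist in water-filled boxes; compound in acetone diluted with water and spray-applied at 120, 60, 30 and 15 g a.i./ha, triplicate. After 15 days in greenhouse, fresh-weight growth control scored on a 0–9 scale (9 = dead, 0 = no effect), averaged.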

[6] = tested on: weeds; test: Activity assay of compositions, soil sealing treatment (S); assay type: in vivo; conditions: treatment S, A 15 g a.i./ha
From the text: (§5) The required active ingredient B was purchased from a reagent company or a technical material manufacturer or synthesized by a conventional method. The technical materials were all dissolved with acetone solvents and diluted with aqueous solution of 0.1% Tween® 80 emulsifier, which should be used immediately after dilution.
The test soil was quantitatively filled to ¾ of a pot, and then watered from the bottom of the pot to completely wet the soil to saturation. The seeds of the test weeds were accelerated to Just germinate, and then evenly and quantitatively broadcasted on the soil surface, covered with 0.5-1 cm soil according to the sizes of the seeds, and ready for use 72 hours after broadcasting.
Each treatment was repeated 4 times. Four pots were treated each time with 20 weed seeds per pot.
The seeds were planted in a 20 cm*30 cm square box. Water was added to 2-3 cm deep after sowing, then injected with the drug agent using a syringe, stirred evenly, and left to stand for 2 days to dry naturally. The soil was kept moist afterwards.
(§6) A method for investigating absolute numbers was employed. The whole seedlings of the survival weeds were cut along the soil surface with a blade, and the fresh weight of the weeds was weighed by an analytical balance. For dead weeds, the fresh weight thereof was considered zero.
(§7) The investigation was performed 21 days after the treatment for once in total.
(§8) The theoretical fresh weight inhibition rate of a mixed combination of each treatment was calculated by the Gowing method (E0═X+Y−X*Y/100), then compared with the measured inhibition rate (E) to evaluate the type of the combined action of the combination of the two on weeds. The combined action was a synergistic effect when E−E0 >10%; an antagonistic effect when E−E0<−10%; an additional effect when −10%≤E−E0≤10%. An optimal ratio was determined according to factors such as actual control effects, characteristics of herbicides, balance of the formulation, etc.

[7] = tested on: weeds; test: Activity assay of compositions, post-emergence spray treatment of stems and leaves (F); assay type: in vivo; conditions: treatment F, A 30 g a.i./ha, 21 days after treatment
Protocol: as §5
Weeds were cultivated by the pot culture method. […] Weed seeds with plump and uniform grains were selected, soaked in lukewarm water at 25° C. for 6 hours, and accelerated to germinate in a 28° C. biochemical incubator (in darkness). The weed seeds that had just germinated were evenly placed on the surface of the soil and then covered with 0.5-1 cm soil according to the sizes of seeds.
The weeds were cultured in a controllable sunlight greenhouse at 20-30° C., in natural light and with relative humidity of 57%-72%.
Each treatment was repeated 4 times. Three pots with 20 weed seeds sowed per pot were treated each time.
The drug was applied once in total in the experiment. When at 1.5-2 leaf stage, the weeds were thinned out to maintain 10 strains per pot. Thirty strains were kept in each treatment and then continued to be cultured until the 3-4 leaf stage for further treatment.
The well-cultured test materials were evenly placed on a 0.5 m^2 platform and foliage-sprayed by the 3WP-2000-type walking spray tower at a dosage of […] and a spray pressure of 0.3 MPa. After all the drug solution was sprayed, the air valve was closed. And 30 seconds later, the door of the spray tower was opened, and the nutritional bowl was taken out. Next, the air valve was opened, and the spray tube was cleaned by spraying 50 mL of water. The test materials were transferred to and routinely cultured in a greenhouse after the treatment.
as §6, §7
as §8, with “etc. In the formula, X represents the fresh weight inhibition rate of the active ingredient A in a dosage of P; Y represents the fresh weight inhibition rate of the active ingredient B in a dosage of Q. The statistical results are shown in Table 6.” for “etc.”

[8] = tested on: Huaidao (rice cultivar); test: Seedling stage sealing experiment for water-seeding (crop safety); assay type: in vivo; conditions: 120 g a.i./ha, seedling stage sealing, 15 days, fresh weight control rate
Summary of the method: as §4

[9] = tested on: Tomato gray mold; test: Fungicidal activity assay, petri dish method; assay type: cell-based; conditions: 400 ppm, 25° C., after 4 days
Protocol: as §1, §2, §3

SMILES | inhibition at 400 ppm ([1]; 96 h, read-out: Rice sheath blight/% (mycelium growth inhibition rate)) | inhibition at 400 ppm ([2]; 96 h, read-out: Apple ring rot/% (mycelium growth inhibition rate)) | Echinochloa crusgalli activity level (growth control rate) [3] | Echinochloa phyllopogon activity level (growth control rate) [4] | Leptochloa chinensis activity level (growth control rate) [5] | Control effect of A applied alone in a corresponding dose (%) ([6]; Alisma plantago-aquatica, 21 days after treatment) | Control effect of A applied alone in a corresponding dose (%) ([6]; Paspalum distichum, 21 days after treatment) | Control effect of A applied alone in a corresponding dose (%) ([6]; Rotala indica, fresh weight inhibition 21 days after treatment) | Control effect of A applied alone in a corresponding dose (%) ([7]; Alisma plantago-aquatica) | Control effect of A applied alone in a corresponding dose (%) ([7]; Paspalum distichum) | Huaidao (rice cultivar) plant damage level [8] | Tomato gray mold/% (mycelium growth inhibition rate) [9] | Rice sheath blight/% (mycelium growth inhibition rate) [1] | Apple ring rot/% (mycelium growth inhibition rate) [2]
Cc1cc(C)cc([C@H]2CN(C)C(=O)[C@@H]2C(=O)Nc2cnn(C)c2Cl)c1 [117′] | 66% | 55% | 9 | 7 (Level 7: growth control rate greater than or equal to 80% and less than 90%) | 9 | 29.6% | 45.7% | 37.6% | 24.8% | 42.6% | – | – | – | –
CN1C[C@H](c2ccc(C3CC3)cc2)[C@@H](C(=O)Nc2cnn(C)c2Cl)C1=O [259′] | – | – | 5 (Level 5: growth control rate greater than or equal to 50% and less than 70%) | – | – | – | – | – | – | – | 0 | 80% | 59% | 51%
CN1C[C@H](c2ccc3c(c2)OC(F)(F)O3)[C@@H](C(=O)Nc2cnn(C)c2Cl)C1=O [357′] | – | – | – | – | – | – | – | – | – | – | – | 80% | 50% | 65%
Cc1cc(C)cc([C@H]2CN(C)C(=O)[C@@H]2C(=O)Nc2cnn(C)c2Br)c1 [425′] | – | – | 9 | 9 | – | – | – | – | – | – | 0 | 68% | 56% | 55%
